In patent publication US10563216B2, “Compositions and methods of delivering molecules to plants” (Bloomsburg University of Pennsylvania, priority 2016, dated 2020):

Test system: AvsYS1 avenic acid/Fe+3 transporter
Assay: Yeast growth assay in liquid medium; only iron available is Fe+3 complexed with the phytosiderophore or analog; DEY1453:pJKD1 (pYES2/AvsYS1) vs DEY1453:pYES2
Type: cell-based, Avena sativa
Conditions: for growth of yeast transformants containing pJKD1 (AvsYS1 transporter): S. cerevisiae DEY1453:pJKD1, ferric iron supplied only as complex with the substance, YNB pH 7.5, BPDS
Text: AvsYS1 (Genbank FJ477297.1) was isolated using 5′RACE from the roots of iron starved oats (Avena sativa). Primers were designed by comparing one functionally confirmed phytosiderophore/Fe′ transporter (HvYS1) and other iron transport proteins. After obtaining a full-length clone, we subcloned the gene (AvsYS1) into a yeast galactose inducible expression vector (pYES2). The resultant plasmid was designated pJKD1. We obtained a yeast strain that lacks the ability to take up ferric iron, and transformed it with pYES2 and pJKD1. The transformants were grown under identical conditions in which the only iron available was in the Fe^+3/avenic acid complex.
We engineered the AvsYS1 gene into a galactose inducible expression systems vector (pYES2). Our first major result was the functional confirmation of the AvsYS1 gene. We transformed pYES2 and pJKD1 (pYES2/AvsYS1) into a strain of S. cerevisiae (DEY1453) that lacks the ability to take up Fe^+3. In the process, we developed a new assay based on growth in liquid medium. The advantage of this assay over more traditional assays used in yeast-based PS/Fe^+3 assays is that it is quantifiable. Other assays (e.g., Murata, 2006) grow yeast on a solid plate, and qualitative growth of colonies is used. With our assay, we can generate numerical data based on the density as measured by the absorbance at 600 nm. […] Further detail is provided below.
Protocols included: 53Y and 53K in DOB+FeSO4, 53Y and 53K in YNB supplemented with Avenic acid; 53Y and 53K supplemented with BPA-1-068B; 53Y and 53K in YNB w/no supplements; uninoculated YNB; uninoculated DOB.
Protocols included: 53Y and 53K, supplemented with Avenic acid, 53Y and 53K supplemented with BPA-1-068B, 53Y and 53K in YNB w/no supplements.
Strains grown in YNB/Gal, pH 7.5, Amp50, Avenic acid: Fe^+3, 5:1
Protocols included: 53Y(pYES2) and 53K(pJKD1=pYES2+AvsYS1), supplemented with Avenic acid (red arrows); 53Y and 53K supplemented with BPA-1-068B (blue arrows); 53Y and 53K in YNB w/no supplements.

| Compound | growth rate of DEY1453:pJKD1 (Fe+3 complexed with the analog, robustness compared to DEY1453:pYES2 controls) | growth of yeast transformants containing pJKD1 (AvsYS1 transporter) | growth of yeast transformants with pYES2 (no transporter) (S. cerevisiae DEY1453:pYES2, only iron available is the Fe+3 complex with the substance) |
| --- | --- | --- | --- |
| O=C(CC(NCCC(NCC[C@H](O)C(=O)O)C(=O)O)C(=O)O)OCc1ccccc1O (some centres unmarked) [BPA-1-068B] | slower, but undeniably robust | able to grow |  |
| O=C(O)C(CO)NCCC(NCC[C@H](O)C(=O)O)C(=O)O (some centres unmarked) [MGS-2-128BF] |  | supported growth as well as avenic acid |  |
| O=C(O)C(CCO)NCCC(NCC[C@H](O)C(=O)O)C(=O)O (some centres unmarked) [avenic acid] |  | able to grow vigorously | could not |
